These results are taken from PubChem BioAssay (NCI).

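Following 48 hours of exposure in 96-well plates, responses at five concentrations were used to interpolate endpoints linearly. GI50: concentration for 50% inhibition of growth. At the TGI there is no net growth.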

Test systems include 786-0 renal; ACHN renal; LOX IMVI melanoma; M14 melanoma; NCI-H460 lung; OVCAR-3 ovarian; OVCAR-5 ovarian; SF-539 CNS; SK-OV-3 ovarian; UACC-257 melanoma.
Common to all, as to test: growth of human tumour cells (NCI), 48 h

For the molecule `COc1cc(NCCCCN=C(N)NC(N)=NC(C)C)c2ncccc2c1`, the GI50 in the test on 786-0 renal is 31 µM; in the test with ACHN renal, greater than 73.7 µM; in the test on LOX IMVI melanoma, 3.68 µM; with M14 melanoma it was 14.6 µM; in the test on NCI-H460 lung, 5.97 µM; in the test with OVCAR-3 ovarian, 0.311 µM. For the same molecule, the GI50 in the test with OVCAR-5 ovarian was 17.3 µM; with SF-539 CNS, 8.14 µM; in the test on SK-OV-3 ovarian, 34.4 µM; with UACC-257 melanoma, 3.26 µM. In addition, the TGI was greater than 100 µM in the test on 786-0 renal; greater than 100 µM in the test on ACHN renal; 15.5 µM in the test on LOX IMVI melanoma; 38.3 µM with M14 melanoma; 20 µM in the test on NCI-H460 lung; 0.897 µM in the test with OVCAR-3 ovarian. For the same molecule, the TGI with OVCAR-5 ovarian was greater than 88.3 µM; in the test on SF-539 CNS, 22.2 µM; in the test on SK-OV-3 ovarian, greater than 100 µM; in the test with UACC-257 melanoma, 10.5 µM.
As for `COc1ccc(/C(Cl)=C(\C=O)c2ccc([N+](=O)[O-])cc2)cc1OC`, the TGI in the test on 786-0 renal came out at 20.1 µM; with ACHN renal, 25 µM; with LOX IMVI melanoma, 12.4 µM; with M14 melanoma it was 43.5 µM; in the test with NCI-H460 lung, 34 µM; in the test on OVCAR-3 ovarian, 38 µM. Moreover, the TGI in the test on OVCAR-5 ovarian was greater than 100 µM; with SF-539 CNS it was 30.8 µM; in the test with SK-OV-3 ovarian, 60 µM; in the test on UACC-257 melanoma it was 29.7 µM.
On to `O=[N+]([O-])c1ccc(-c2nc(-c3ccccc3)c(-c3ccccc3)n2-c2ccccc2)cc1`, for which the GI50 is 4.82 µM in the test on 786-0 renal; 2.62 µM in the test with ACHN renal; 2.4 µM with LOX IMVI melanoma; 3.57 µM in the test on M14 melanoma; 2.43 µM in the test with NCI-H460 lung; 2.43 µM in the test on OVCAR-3 ovarian. Further, the GI50 is 4.7 µM in the test on OVCAR-5 ovarian, 2.02 µM in the test with SF-539 CNS, 2.03 µM with SK-OV-3 ovarian and 2.39 µM in the test on UACC-257 melanoma. Besides, the TGI with 786-0 renal was determined as 22.3 µM; in the test with ACHN renal, 27.4 µM; in the test on LOX IMVI melanoma it was 6.86 µM; with M14 melanoma, 16 µM; in the test with NCI-H460 lung it was 7.06 µM; with OVCAR-3 ovarian it was 6.67 µM. For the same molecule, the TGI was found to be 28.7 µM with OVCAR-5 ovarian, 4.78 µM in the test on SF-539 CNS, 9.21 µM in the test on SK-OV-3 ovarian and 5.87 µM in the test with UACC-257 melanoma.
`Cc1cc2cc3cc(C)c(N(C)C)cc3nc2cc1N(C)C`: the GI50 is 3.87 µM in the test on 786-0 renal; 4.76 µM with ACHN renal; 3.33 µM in the test with LOX IMVI melanoma; 3.76 µM with M14 melanoma; 2.37 µM with NCI-H460 lung; 2.54 µM in the test on OVCAR-3 ovarian. Also, the GI50 in the test with OVCAR-5 ovarian is 8.37 µM; in the test on SF-539 CNS, 3.08 µM; in the test on SK-OV-3 ovarian, 2.87 µM; in the test on UACC-257 melanoma, 3.37 µM. Further, the TGI in the test on 786-0 renal is 16.3 µM; with ACHN renal, greater than 100 µM; with LOX IMVI melanoma, 78 µM; in the test on M14 melanoma, 18.4 µM; in the test on NCI-H460 lung, 11.5 µM; with OVCAR-3 ovarian, 11.1 µM. For the same molecule, the TGI in the test on OVCAR-5 ovarian was greater than 100 µM; in the test with SF-539 CNS, 12.7 µM; with SK-OV-3 ovarian it was 25.4 µM; with UACC-257 melanoma it was 21.8 µM.
Regarding `CCOC(=O)C(=O)Nc1c(F)cc(F)cc1Br`, the TGI in the test on 786-0 renal, in the test on ACHN renal, with LOX IMVI melanoma, in the test on M14 melanoma, with NCI-H460 lung and with OVCAR-3 ovarian was greater than 100 µM throughout. Besides, the TGI in the test with OVCAR-5 ovarian, in the test with SF-539 CNS, in the test on SK-OV-3 ovarian and in the test with UACC-257 melanoma was greater than 100 µM throughout.
On to `CCOC(=O)c1sc2nc3sc(N=Nc4ccc(Cl)cc4)c(O)n3c(=S)c2c1C`, for which the GI50 in the test on 786-0 renal was 32.4 µM; in the test with ACHN renal, 16.5 µM; in the test with LOX IMVI melanoma, 26.1 µM; in the test on M14 melanoma, 33.2 µM; in the test with NCI-H460 lung it was 25.9 µM; with OVCAR-3 ovarian, 36.7 µM. The GI50 in the test with OVCAR-5 ovarian is 36.9 µM; in the test with SF-539 CNS, 25.1 µM; in the test on SK-OV-3 ovarian, 31 µM; in the test on UACC-257 melanoma it was 23.4 µM. For the same molecule, the TGI in the test on 786-0 renal was greater than 100 µM; in the test with ACHN renal it was 54.3 µM; in the test with LOX IMVI melanoma it was 87.1 µM; in the test on M14 melanoma, greater than 100 µM; in the test on NCI-H460 lung it was greater than 100 µM; with OVCAR-3 ovarian, greater than 100 µM. The TGI was greater than 100 µM in the test with OVCAR-5 ovarian, 50.5 µM in the test on SF-539 CNS, greater than 100 µM in the test with SK-OV-3 ovarian and 60.6 µM in the test on UACC-257 melanoma.
Turning to `ClC1=C(Cl)C(Cl)=C(Cl)C1=C/C=C/c1ccccc1`, the GI50 in the test on 786-0 renal was 0.444 µM; in the test with ACHN renal it was 0.318 µM; with LOX IMVI melanoma, 0.184 µM; in the test with M14 melanoma, 0.279 µM; in the test with NCI-H460 lung, 0.326 µM; in the test on OVCAR-3 ovarian, 0.239 µM. Further, the GI50 in the test with OVCAR-5 ovarian is 0.338 µM; with SF-539 CNS it was 0.206 µM; with SK-OV-3 ovarian, 2.44 µM; in the test on UACC-257 melanoma it was 0.184 µM. Moreover, the TGI in the test with 786-0 renal is 2.05 µM; in the test with ACHN renal, 0.855 µM; with LOX IMVI melanoma it was 0.407 µM; with M14 melanoma, 0.882 µM; in the test with NCI-H460 lung it was 2.3 µM; with OVCAR-3 ovarian, 0.532 µM. Moreover, the TGI in the test with OVCAR-5 ovarian is 0.968 µM; with SF-539 CNS, 0.699 µM; with SK-OV-3 ovarian it was greater than 27.5 µM; in the test with UACC-257 melanoma, 0.41 µM.
Regarding `COc1ccc(C(=O)c2ccc(OC)c(OC)c2OC)cc1`, the GI50 with 786-0 renal is 9.85 µM; in the test with ACHN renal, 6.56 µM; in the test with LOX IMVI melanoma, 6.63 µM; with M14 melanoma it was 1.32 µM; with NCI-H460 lung, 1.99 µM; in the test on OVCAR-3 ovarian, 0.773 µM. Also, the GI50 with OVCAR-5 ovarian was 8.52 µM; in the test on SF-539 CNS, 1.79 µM; in the test on SK-OV-3 ovarian it was 2.06 µM; in the test on UACC-257 melanoma, 3.73 µM. The TGI was greater than 100 µM with 786-0 renal; greater than 100 µM with ACHN renal; greater than 100 µM in the test on LOX IMVI melanoma; 71.2 µM in the test with M14 melanoma; 11.6 µM with NCI-H460 lung; 2.86 µM in the test with OVCAR-3 ovarian. For the same molecule, the TGI in the test on OVCAR-5 ovarian is greater than 100 µM; in the test with SF-539 CNS it was 8.2 µM; with SK-OV-3 ovarian, 13.1 µM; with UACC-257 melanoma, greater than 100 µM.
As for `COc1ccc(Nn2c(SCC(=O)Nc3nc(-c4ccc(Cl)cc4)cs3)nc(C)c2C)cc1`, the GI50 in the test on 786-0 renal is 3.46 µM; in the test on ACHN renal it was 2.27 µM; with LOX IMVI melanoma, 3.02 µM; in the test with M14 melanoma, 3.02 µM; in the test with NCI-H460 lung it was 2.69 µM; in the test on OVCAR-3 ovarian, 3.13 µM. The GI50 in the test with OVCAR-5 ovarian is greater than 100 µM; with SF-539 CNS, 4.15 µM; in the test on SK-OV-3 ovarian it was 4.24 µM; in the test on UACC-257 melanoma it was 2.97 µM. In addition, the TGI is 18.2 µM in the test on 786-0 renal; 8.76 µM with ACHN renal; 44.2 µM in the test with LOX IMVI melanoma; greater than 100 µM in the test on M14 melanoma; 10.6 µM in the test with NCI-H460 lung; 24.2 µM with OVCAR-3 ovarian. Moreover, the TGI in the test with OVCAR-5 ovarian was greater than 100 µM; in the test on SF-539 CNS it was greater than 100 µM; in the test with SK-OV-3 ovarian, greater than 100 µM; in the test on UACC-257 melanoma, 41.1 µM.
For `O=S(O)CCCCCSSCCCCSSCCCCCS(=O)O`, the TGI in the test with 786-0 renal, in the test on ACHN renal, in the test on LOX IMVI melanoma, in the test with M14 melanoma, in the test with NCI-H460 lung and with OVCAR-3 ovarian was greater than 100 µM each time. The TGI in the test on OVCAR-5 ovarian, with SF-539 CNS, in the test with SK-OV-3 ovarian and in the test on UACC-257 melanoma was greater than 100 µM in each case.
On to `O=C(CO)CC(=O)C(=O)Nc1nc([N+](=O)[O-])cs1`, for which the TGI with 786-0 renal, with ACHN renal, with LOX IMVI melanoma, in the test on M14 melanoma, in the test with NCI-H460 lung and in the test on OVCAR-3 ovarian was greater than 100 µM in each case. For the same molecule, the TGI with OVCAR-5 ovarian, in the test with SF-539 CNS, with SK-OV-3 ovarian and in the test with UACC-257 melanoma was greater than 100 µM each time.
With `CC1C[C@H](OC(N)=O)C(C)CC1=O` (stereo not given in full), the TGI in the test on 786-0 renal, with ACHN renal, in the test with LOX IMVI melanoma, in the test with M14 melanoma, in the test on NCI-H460 lung and in the test with OVCAR-3 ovarian was greater than 100 µM throughout. Besides, the TGI with OVCAR-5 ovarian, in the test on SF-539 CNS, in the test with SK-OV-3 ovarian and in the test with UACC-257 melanoma was greater than 100 µM each time.
On to `Cc1ccc(NC(=O)c2cccc([N+](=O)[O-])c2O)c([N+](=O)[O-])c1`, for which the TGI in the test with 786-0 renal was determined as 37 µM; in the test on ACHN renal, 58.1 µM; with LOX IMVI melanoma it was 25.1 µM; with M14 melanoma it was 30.9 µM; in the test with NCI-H460 lung it was 18.9 µM; with OVCAR-3 ovarian, 44.1 µM. Further, the TGI in the test on OVCAR-5 ovarian worked out at 39.4 µM; in the test with SF-539 CNS, 34.3 µM; in the test with SK-OV-3 ovarian it was 57.8 µM; with UACC-257 melanoma, 33.4 µM.
Regarding `CCCCCCCCCCCCCCCCCC1=NCCN1CS(=O)(=O)O`, the GI50 with 786-0 renal is 17.7 µM; in the test with ACHN renal, 13 µM; in the test with LOX IMVI melanoma, 2.86 µM; in the test with M14 melanoma it was 6.19 µM; with NCI-H460 lung it was 3.24 µM; in the test on OVCAR-3 ovarian, 15 µM. Also, the GI50 in the test on OVCAR-5 ovarian is 15.4 µM; in the test on SF-539 CNS it was 19.4 µM; in the test with SK-OV-3 ovarian it was 18.1 µM; in the test on UACC-257 melanoma, 17.1 µM. Moreover, the TGI in the test on 786-0 renal was determined as 35.3 µM; in the test on ACHN renal, 28.8 µM; in the test with LOX IMVI melanoma it was 12.5 µM; with M14 melanoma, 21 µM; in the test with NCI-H460 lung it was 8.39 µM; in the test with OVCAR-3 ovarian it was 33.7 µM. Besides, the TGI turned out to be 32.7 µM with OVCAR-5 ovarian, 46.8 µM with SF-539 CNS, 39.4 µM in the test with SK-OV-3 ovarian and 33.9 µM in the test on UACC-257 melanoma.
